# In ChEMBL document CHEMBL1909046, “DrugMatrix in vitro pharmacology data”:
# Columns and labels:
# [1] = biological target: Beta-1 adrenergic receptor (Homo sapiens, UniProt P08588); assay: DRUGMATRIX: Adrenergic beta1 radioligand binding (ligand: [125I] Cyanopindolol); assay type: cell membranes, CHO-K1, Membrane; conditions: Not Active = under 50% inhibition at 10 µM
# [2] = DRUGMATRIX: Glutamate, NMDA, Phencyclidine radioligand binding (ligand: [3H] TCP); assay type: cell membranes, Rattus norvegicus, Wistar, Cerebral cortex, Membrane; conditions: Not Active = under 50% inhibition at 10 µM
# [3] = biological target: Glycine receptor (Rattus norvegicus, UniProt P22771+P24524+P07727+P20781); assay type: cell membranes, Wistar, Spinal cord, Membrane; further: in other assays of this panel Not Active means under 50% inhibition at 10 µM
# [4] = DRUGMATRIX: Phorbol Ester radioligand binding (ligand: [3H] PDBu); assay type: cell membranes, Mus musculus, ICR, Brain, Membrane; conditions: Not Active = under 50% inhibition at 10 µM
# [5] = biological target: T1, Angiotensin-converting enzyme (Oryctolagus cuniculus, UniProt P12822); assay type: tissue-based, Lung;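 further: enzymatic inhibition of angiotensin-converting enzyme measured with FAPGG as the substrate; in other assays of this panel Not Active means under 50% inhibition at 10 µM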
# T1 sequence (P12822 whole entry): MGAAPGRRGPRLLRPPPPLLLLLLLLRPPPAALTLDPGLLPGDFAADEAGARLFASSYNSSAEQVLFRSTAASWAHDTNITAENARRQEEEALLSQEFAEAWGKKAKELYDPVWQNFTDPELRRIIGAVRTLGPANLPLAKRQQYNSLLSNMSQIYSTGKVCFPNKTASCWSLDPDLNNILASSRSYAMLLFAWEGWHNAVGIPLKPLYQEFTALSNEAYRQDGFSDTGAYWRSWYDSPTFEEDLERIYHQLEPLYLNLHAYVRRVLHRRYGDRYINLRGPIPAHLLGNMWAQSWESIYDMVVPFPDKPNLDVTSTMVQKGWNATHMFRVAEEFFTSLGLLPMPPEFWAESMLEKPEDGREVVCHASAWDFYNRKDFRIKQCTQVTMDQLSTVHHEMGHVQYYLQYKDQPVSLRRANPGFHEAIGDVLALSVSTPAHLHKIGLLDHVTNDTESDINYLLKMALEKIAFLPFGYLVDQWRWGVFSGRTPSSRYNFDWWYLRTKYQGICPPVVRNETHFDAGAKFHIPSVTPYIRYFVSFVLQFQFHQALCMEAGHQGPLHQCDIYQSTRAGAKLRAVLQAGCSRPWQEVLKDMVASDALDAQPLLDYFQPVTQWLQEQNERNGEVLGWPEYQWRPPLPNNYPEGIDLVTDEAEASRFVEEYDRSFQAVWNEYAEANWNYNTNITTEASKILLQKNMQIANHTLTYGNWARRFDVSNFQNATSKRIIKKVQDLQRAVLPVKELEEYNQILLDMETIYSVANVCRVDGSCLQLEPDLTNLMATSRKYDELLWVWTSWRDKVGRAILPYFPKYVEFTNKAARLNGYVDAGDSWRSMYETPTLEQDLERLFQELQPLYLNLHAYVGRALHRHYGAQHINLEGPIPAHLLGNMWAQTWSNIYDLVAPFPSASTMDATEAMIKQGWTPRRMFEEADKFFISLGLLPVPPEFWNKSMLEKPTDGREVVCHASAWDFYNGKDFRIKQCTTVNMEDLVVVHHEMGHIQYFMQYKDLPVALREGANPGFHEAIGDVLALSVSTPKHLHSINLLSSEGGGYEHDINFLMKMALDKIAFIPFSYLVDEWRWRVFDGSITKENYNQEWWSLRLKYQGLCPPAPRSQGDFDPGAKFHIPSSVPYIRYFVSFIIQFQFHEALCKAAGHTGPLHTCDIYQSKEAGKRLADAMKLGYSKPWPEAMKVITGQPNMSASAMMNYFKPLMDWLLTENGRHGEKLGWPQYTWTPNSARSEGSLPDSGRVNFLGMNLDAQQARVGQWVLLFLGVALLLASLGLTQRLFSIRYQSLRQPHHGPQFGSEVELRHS
# [6] = biological target: T2, Neutrophil elastase (Homo sapiens, UniProt P08246); assay type: tissue-based;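 further: inhibition of neutrophil elastase enzyme activity, measured with a p-nitroanilide-linked peptide substrate; in other assays of this panel Not Active means under 50% inhibition at 10 µM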
# T2 sequence (P08246 whole entry): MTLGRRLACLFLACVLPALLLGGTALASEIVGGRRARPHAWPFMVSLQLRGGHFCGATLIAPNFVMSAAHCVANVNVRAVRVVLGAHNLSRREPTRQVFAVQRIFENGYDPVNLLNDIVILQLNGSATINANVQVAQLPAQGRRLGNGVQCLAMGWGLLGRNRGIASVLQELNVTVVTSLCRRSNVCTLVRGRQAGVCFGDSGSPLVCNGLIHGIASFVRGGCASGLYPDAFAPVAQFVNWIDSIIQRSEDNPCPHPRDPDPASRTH
# [7] = biological target: T3, Interstitial collagenase (Homo sapiens, UniProt P03956); assay type: tissue-based, Rheumatoid synovial fibroblasts;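 further: MMP-1 enzyme inhibition assay using a peptide substrate; in other assays of this panel Not Active means under 50% inhibition at 10 µM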
# T3 sequence (P03956 whole entry): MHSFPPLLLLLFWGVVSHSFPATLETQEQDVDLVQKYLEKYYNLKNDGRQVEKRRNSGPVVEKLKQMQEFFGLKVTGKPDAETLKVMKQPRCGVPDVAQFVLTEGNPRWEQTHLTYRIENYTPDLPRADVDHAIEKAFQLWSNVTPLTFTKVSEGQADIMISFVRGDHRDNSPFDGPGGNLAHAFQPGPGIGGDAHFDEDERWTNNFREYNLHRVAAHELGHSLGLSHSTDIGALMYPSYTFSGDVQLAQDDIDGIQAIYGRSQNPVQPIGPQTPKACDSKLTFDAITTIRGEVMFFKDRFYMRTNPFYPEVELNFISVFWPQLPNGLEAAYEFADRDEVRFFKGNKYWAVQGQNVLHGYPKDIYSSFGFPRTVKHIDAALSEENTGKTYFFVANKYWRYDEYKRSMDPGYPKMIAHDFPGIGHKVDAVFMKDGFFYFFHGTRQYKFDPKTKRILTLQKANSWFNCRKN
# [8] = biological target: Receptor tyrosine-protein kinase erbB-2 (Homo sapiens, UniProt P04626); assay: biochemical; assay type: cell-based, Insect cells; conditions: insect cells
# Receptor tyrosine-protein kinase erbB-2, sequence (P04626 whole entry): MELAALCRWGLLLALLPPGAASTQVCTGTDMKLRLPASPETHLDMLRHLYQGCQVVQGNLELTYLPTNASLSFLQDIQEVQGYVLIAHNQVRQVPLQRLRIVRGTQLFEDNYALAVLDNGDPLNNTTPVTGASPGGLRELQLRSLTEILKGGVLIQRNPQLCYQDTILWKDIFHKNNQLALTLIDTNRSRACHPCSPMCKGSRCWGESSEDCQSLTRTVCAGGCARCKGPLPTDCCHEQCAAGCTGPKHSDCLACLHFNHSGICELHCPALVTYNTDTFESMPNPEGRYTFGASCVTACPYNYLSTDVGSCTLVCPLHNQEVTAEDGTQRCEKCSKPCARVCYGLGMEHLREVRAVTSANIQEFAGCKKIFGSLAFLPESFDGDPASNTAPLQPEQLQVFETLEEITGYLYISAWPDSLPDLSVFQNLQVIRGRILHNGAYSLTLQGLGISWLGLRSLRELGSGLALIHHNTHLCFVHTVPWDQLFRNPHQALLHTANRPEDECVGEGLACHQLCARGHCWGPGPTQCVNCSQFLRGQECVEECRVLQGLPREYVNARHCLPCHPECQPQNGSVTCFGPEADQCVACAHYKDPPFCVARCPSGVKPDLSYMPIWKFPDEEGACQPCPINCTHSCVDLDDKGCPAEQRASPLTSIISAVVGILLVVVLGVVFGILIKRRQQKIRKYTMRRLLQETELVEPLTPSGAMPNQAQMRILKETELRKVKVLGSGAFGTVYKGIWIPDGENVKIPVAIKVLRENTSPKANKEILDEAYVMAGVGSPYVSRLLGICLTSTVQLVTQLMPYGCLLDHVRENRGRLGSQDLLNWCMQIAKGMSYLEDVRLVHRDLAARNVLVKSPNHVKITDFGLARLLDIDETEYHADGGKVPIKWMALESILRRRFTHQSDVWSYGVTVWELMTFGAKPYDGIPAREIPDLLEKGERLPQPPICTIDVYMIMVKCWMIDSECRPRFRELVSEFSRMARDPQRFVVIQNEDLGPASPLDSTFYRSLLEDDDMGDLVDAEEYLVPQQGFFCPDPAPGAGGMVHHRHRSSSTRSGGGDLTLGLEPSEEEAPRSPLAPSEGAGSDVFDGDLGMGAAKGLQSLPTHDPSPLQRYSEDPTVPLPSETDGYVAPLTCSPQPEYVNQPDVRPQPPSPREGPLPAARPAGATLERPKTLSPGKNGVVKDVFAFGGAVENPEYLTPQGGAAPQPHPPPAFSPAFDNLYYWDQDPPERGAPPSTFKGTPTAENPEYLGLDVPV
# Beta-1 adrenergic receptor, sequence (P08588 whole entry): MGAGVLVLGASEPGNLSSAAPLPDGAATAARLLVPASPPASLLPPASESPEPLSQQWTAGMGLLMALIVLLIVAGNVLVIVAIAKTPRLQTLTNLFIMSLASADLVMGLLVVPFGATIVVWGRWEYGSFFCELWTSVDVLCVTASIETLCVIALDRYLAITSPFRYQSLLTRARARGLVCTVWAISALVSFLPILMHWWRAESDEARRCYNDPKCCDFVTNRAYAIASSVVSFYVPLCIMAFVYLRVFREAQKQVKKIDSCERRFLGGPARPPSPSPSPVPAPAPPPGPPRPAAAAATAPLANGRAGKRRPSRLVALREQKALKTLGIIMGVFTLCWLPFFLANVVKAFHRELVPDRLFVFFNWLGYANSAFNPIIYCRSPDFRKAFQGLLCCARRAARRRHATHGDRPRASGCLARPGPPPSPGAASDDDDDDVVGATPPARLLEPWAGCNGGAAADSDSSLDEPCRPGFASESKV
Structure (SMILES),IC50 ([1]; cho-k1),IC50 [2],Ki [2],IC50 [3],IC50 [4],Ki [4],IC50 [5],IC50 [6],IC50 [7],IC50 [8],IC50 ([1]; read-out: IC50) [nM],Ki ([1]; read-out: Ki) [nM]
CCN[C@@H](C)Cc1cccc(C(F)(F)F)c1 [DEXFENFLURAMINE],Not Active,Not Active,Not Active,Not Active,Not Active,Not Active,Not Active,Not Active,Not Active,Not Active,,
C[C@H](C(=O)O)c1cccc(C(=O)c2ccccc2)c1 [DEXKETOPROFEN],Not Active,Not Active,Not Active,Not Active,Not Active,Not Active,Not Active,Not Active,Not Active,Not Active,,
CN1C(=O)CN=C(c2ccccc2)c2cc(Cl)ccc21 [DIAZEPAM],Not Active,Not Active,Not Active,Not Active,Not Active,Not Active,Not Active,Not Active,Not Active,Not Active,,
CN1C[C@H](C(=O)N[C@]2(C)O[C@@]3(O)[C@@H]4CCCN4C(=O)[C@H](Cc4ccccc4)N3C2=O)C[C@@H]2c3cccc4[nH]cc(c34)C[C@H]21 [DIHYDROERGOTAMINE],Not Active,Not Active,Not Active,Not Active,Not Active,Not Active,Not Active,Not Active,Not Active,Not Active,,
Cc1c(N(C)CS(=O)(=O)[O-])c(=O)n(-c2ccccc2)n1C.[Na+] [DIPYRONE SODIUM],Not Active,Not Active,Not Active,Not Active,Not Active,Not Active,Not Active,Not Active,Not Active,Not Active,,
CC(CCc1ccc(O)cc1)NCCc1ccc(O)c(O)c1 (stereo unspecified) [DOBUTAMINE],,Not Active,Not Active,Not Active,Not Active,Not Active,Not Active,Not Active,Not Active,Not Active,1940,1120
CCn1cc(C(=O)O)c(=O)c2cc(F)c(N3CCNCC3)nc21 [ENOXACIN],Not Active,Not Active,Not Active,Not Active,Not Active,Not Active,Not Active,Not Active,Not Active,Not Active,,
CCC(=O)O[C@H]1[C@H](O[C@@H]2[C@@H](C)[C@H](O[C@H]3C[C@@](C)(OC)[C@@H](O)[C@H](C)O3)[C@@H](C)C(=O)O[C@H](CC)[C@@](C)(O)[C@H](O)[C@@H](C)C(=O)[C@H](C)C[C@@]2(C)O)O[C@H](C)C[C@@H]1N(C)C [ERYTHROMYCIN PROPIONATE],Not Active,Not Active,Not Active,Not Active,Not Active,Not Active,Not Active,Not Active,Not Active,Not Active,,
C=C(CC)C(=O)c1ccc(OCC(=O)O)c(Cl)c1Cl [ETHACRYNIC ACID],Not Active,Not Active,Not Active,Not Active,Not Active,Not Active,Not Active,Not Active,Not Active,Not Active,,
C#C[C@]1(O)CC[C@H]2[C@@H]3CCc4cc(O)ccc4[C@H]3CC[C@@]21C [ETHINYL ESTRADIOL],Not Active,Not Active,Not Active,Not Active,Not Active,Not Active,Not Active,Not Active,Not Active,Not Active,,
OCCO [ETHYLENE GLYCOL],Not Active,Not Active,Not Active,Not Active,Not Active,Not Active,Not Active,Not Active,Not Active,Not Active,,
CC(=O)OCC(CCn1cnc2cnc(N)nc21)COC(C)=O [FAMCICLOVIR],Not Active,Not Active,Not Active,Not Active,Not Active,Not Active,Not Active,Not Active,Not Active,Not Active,,
O=C(O)Cc1ccc(-c2ccccc2)cc1 [FELBINAC],Not Active,Not Active,Not Active,Not Active,Not Active,Not Active,Not Active,Not Active,Not Active,Not Active,,
CCOC(=O)C1=C(C)NC(C)=C(C(=O)OC)C1c1cccc(Cl)c1Cl (stereo unspecified) [FELODIPINE],Not Active,Not Active,Not Active,Not Active,Not Active,Not Active,Not Active,Not Active,Not Active,Not Active,,
CC(C(=O)O)c1ccc(-c2ccccc2)c(F)c1 (stereo unspecified) [FLURBIPROFEN],Not Active,Not Active,Not Active,Not Active,Not Active,Not Active,Not Active,Not Active,Not Active,Not Active,,
Cc1cn[nH]c1 [FOMEPIZOLE],Not Active,Not Active,Not Active,Not Active,Not Active,Not Active,Not Active,Not Active,Not Active,Not Active,,
NC[C@@H]1O[C@H](O[C@H]2[C@@H](O)[C@H](O[C@@H]3[C@@H](O)[C@H](N)C[C@H](N)[C@H]3O[C@H]3O[C@H](CN)[C@@H](O)[C@H](O)[C@H]3N)O[C@@H]2CO)[C@H](N)[C@@H](O)[C@@H]1O [FRAMYCETIN],Not Active,Not Active,Not Active,Not Active,Not Active,Not Active,Not Active,Not Active,Not Active,Not Active,,
C[C@H]([C@](O)(Cn1cncn1)c1ccc(F)cc1F)S(C)(=O)=O [GENACONAZOLE],Not Active,Not Active,Not Active,Not Active,Not Active,Not Active,Not Active,Not Active,Not Active,Not Active,,
